Our source for the Hepatotoxicity values is ChEMBL document CHEMBL1697731, “Cheminformatics analysis of assertions mined from literature that describe drug-induced liver injury in different species” (Chem Res Toxicol, 2010).

SMILES strings stand for the structures.

The test system of series [1] is Hepatotoxicity. Put plainly: Literature-mined compound from Fourches et al multi-species drug-induced liver injury (DILI) dataset, effect in non-rodents.
Series [2] relates to Hepatotoxicity. Put plainly: Literature-mined compound from Fourches et al multi-species drug-induced liver injury (DILI) dataset, effect in rodents. The settings on record: rodentia.
Series [3] has as its system Hepatotoxicity. The series can be described thus: Literature-mined compound from Fourches et al multi-species drug-induced liver injury (DILI) dataset, effect in humans. The settings on record: human.

Consider `Cc1cnc(NC(=O)C2=C(O)c3ccccc3S(=O)(=O)N2C)s1` [MELOXICAM], for which the Hepatotoxicity entry in the series on Hepatotoxicity [1] is “no drug-induced liver injury reported”; in the series on Hepatotoxicity [2], “no drug-induced liver injury reported”; in the series with Hepatotoxicity [3], “drug-induced liver injury reported”.
As for `CC1=CC(=O)c2ccccc2C1=O` [MENADIONE], the Hepatotoxicity result in the series on Hepatotoxicity [1], in the series with Hepatotoxicity [2] and with Hepatotoxicity [3] was “drug-induced liver injury reported” throughout.
Regarding `CC1CCC(C(C)C)C(O)C1` (stereo not drawn) [MENTHOL], the Hepatotoxicity result in the series with Hepatotoxicity [1] is listed as “no drug-induced liver injury reported”; in the series with Hepatotoxicity [2], “no drug-induced liver injury reported”; with Hepatotoxicity [3], “drug-induced liver injury reported”.
Take `CCOC(=O)C1(c2ccccc2)CCN(C)CC1` [MEPERIDINE]: the Hepatotoxicity entry in the series with Hepatotoxicity [1] is “no drug-induced liver injury reported”; in the series on Hepatotoxicity [2], “no drug-induced liver injury reported”; with Hepatotoxicity [3], “drug-induced liver injury reported”.
Regarding `CCC1(c2ccccc2)NC(=O)N(C)C1=O` (stereo not drawn) [MEPHENYTOIN], the Hepatotoxicity result with Hepatotoxicity [1] was “no drug-induced liver injury reported”; in the series with Hepatotoxicity [2], “drug-induced liver injury reported”; in the series with Hepatotoxicity [3], “no drug-induced liver injury reported”.
In the case of `CCC1(c2ccccc2)C(=O)NC(=O)N(C)C1=O` (stereo not drawn) [MEPHOBARBITAL], the Hepatotoxicity result in the series with Hepatotoxicity [1] is given as “no drug-induced liver injury reported”; in the series with Hepatotoxicity [2], “drug-induced liver injury reported”; with Hepatotoxicity [3], “no drug-induced liver injury reported”.
In the case of `Cc1cccc(C)c1NC(=O)C1CCCCN1C` (stereo not drawn) [MEPIVACAINE], the figures for the Hepatotoxicity result in the series on Hepatotoxicity [1], in the series on Hepatotoxicity [2] and in the series on Hepatotoxicity [3] were “no drug-induced liver injury reported”, “drug-induced liver injury reported” and “no drug-induced liver injury reported”, respectively.
Regarding `CCCC(C)(COC(N)=O)COC(N)=O` [MEPROBAMATE], the Hepatotoxicity entry is listed as “no drug-induced liver injury reported” with Hepatotoxicity [1], “drug-induced liver injury reported” in the series on Hepatotoxicity [2] and “no drug-induced liver injury reported” in the series on Hepatotoxicity [3].
As to `COc1ccc(O)cc1` [MEQUINOL], the Hepatotoxicity result is recorded as “no drug-induced liver injury reported” in the series with Hepatotoxicity [1], “drug-induced liver injury reported” in the series with Hepatotoxicity [2] and “no drug-induced liver injury reported” in the series on Hepatotoxicity [3].
On to `Sc1ncnc2nc[nH]c12` [MERCAPTOPURINE ANHYDROUS], for which the Hepatotoxicity entry in the series with Hepatotoxicity [1] (Liver) is recorded as “no drug-induced liver injury reported”; in the series with Hepatotoxicity [2] (Liver) it was “drug-induced liver injury reported”; with Hepatotoxicity [3] (Liver), “drug-induced liver injury reported”.
As for `C[C@@H](O)[C@H]1C(=O)N2C(C(=O)O)=C(S[C@@H]3CN[C@H](C(=O)N(C)C)C3)[C@H](C)[C@H]12` [MEROPENEM], the Hepatotoxicity result in the series on Hepatotoxicity [1] is “no drug-induced liver injury reported”; in the series with Hepatotoxicity [2], “no drug-induced liver injury reported”; in the series on Hepatotoxicity [3] it was “drug-induced liver injury reported”.
As for `Nc1ccc(O)c(C(=O)O)c1` [MESALAMINE], the Hepatotoxicity result was “no drug-induced liver injury reported” in the series on Hepatotoxicity [1], “drug-induced liver injury reported” in the series with Hepatotoxicity [2] and “drug-induced liver injury reported” in the series with Hepatotoxicity [3].
In the case of `O=S(=O)([O-])CCS.[Na+]` [MESNA], the Hepatotoxicity entry is “no drug-induced liver injury reported” with Hepatotoxicity [1], “drug-induced liver injury reported” with Hepatotoxicity [2] and “no drug-induced liver injury reported” with Hepatotoxicity [3].
With `C#C[C@]1(O)CC[C@H]2[C@@H]3CCc4cc(OC)ccc4[C@H]3CC[C@@]21C` [MESTRANOL], the Hepatotoxicity result with Hepatotoxicity [1], in the series on Hepatotoxicity [2] and with Hepatotoxicity [3] was “drug-induced liver injury reported” each time.
With `CN(C)C(=N)N=C(N)N` [METFORMIN], the Hepatotoxicity result in the series with Hepatotoxicity [1] (Liver), in the series with Hepatotoxicity [2] (Liver) and in the series on Hepatotoxicity [3] (Liver) was “drug-induced liver injury reported” throughout.
For the molecule `CCC(=O)C(CC(C)N(C)C)(c1ccccc1)c1ccccc1` (stereo not drawn) [METHADONE], the Hepatotoxicity result is “no drug-induced liver injury reported” in the series on Hepatotoxicity [1], “drug-induced liver injury reported” in the series on Hepatotoxicity [2] and “drug-induced liver injury reported” in the series on Hepatotoxicity [3].
In the case of `CN[C@@H](C)Cc1ccccc1` [METHAMPHETAMINE], the Hepatotoxicity entry in the series on Hepatotoxicity [1] is recorded as “no drug-induced liver injury reported”; in the series on Hepatotoxicity [2], “drug-induced liver injury reported”; with Hepatotoxicity [3] it was “drug-induced liver injury reported”.
Turning to `Cc1ccccc1-n1c(C)nc2ccccc2c1=O` [METHAQUALONE], the Hepatotoxicity result in the series on Hepatotoxicity [1] is on record as “no drug-induced liver injury reported”; with Hepatotoxicity [2], “drug-induced liver injury reported”; with Hepatotoxicity [3], “no drug-induced liver injury reported”.
As to `CSCC[C@H](N)C(=O)O` [METHIONINE], the Hepatotoxicity result in the series with Hepatotoxicity [1] (Liver), in the series with Hepatotoxicity [2] (Liver) and in the series with Hepatotoxicity [3] (Liver) was “drug-induced liver injury reported” in each case.
For `C=CCC1(C(C)C#CCC)C(=O)N=C([O-])N(C)C1=O.[Na+]` (stereo not drawn) [METHOHEXITAL SODIUM], the Hepatotoxicity entry in the series on Hepatotoxicity [1] was “no drug-induced liver injury reported”; in the series on Hepatotoxicity [2], “drug-induced liver injury reported”; in the series with Hepatotoxicity [3] it was “no drug-induced liver injury reported”.
Consider `CN(Cc1cnc2nc(N)nc(N)c2n1)c1ccc(C(=O)N[C@@H](CCC(=O)O)C(=O)O)cc1` [METHOTREXATE], for which the Hepatotoxicity entry in the series with Hepatotoxicity [1], in the series with Hepatotoxicity [2] and with Hepatotoxicity [3] was “drug-induced liver injury reported” in each case.
In the case of `COc1c2occc2cc2ccc(=O)oc12` [METHOXSALEN], the Hepatotoxicity entry in the series with Hepatotoxicity [1] is “no drug-induced liver injury reported”; in the series on Hepatotoxicity [2], “drug-induced liver injury reported”; in the series with Hepatotoxicity [3], “drug-induced liver injury reported”.
In the case of `COC(F)(F)C(Cl)Cl` [METHOXYFLURANE], the values for the Hepatotoxicity result in the series on Hepatotoxicity [1], in the series on Hepatotoxicity [2] and in the series on Hepatotoxicity [3] were “no drug-induced liver injury reported”, “drug-induced liver injury reported” and “drug-induced liver injury reported”, respectively.
As for `COC(=O)c1ccccc1O` [METHYL SALICYLATE], the Hepatotoxicity result was “drug-induced liver injury reported” in the series with Hepatotoxicity [1], “no drug-induced liver injury reported” in the series on Hepatotoxicity [2] and “no drug-induced liver injury reported” in the series with Hepatotoxicity [3].
With `C[C@](N)(Cc1ccc(O)c(O)c1)C(=O)O` [METHYLDOPA], the Hepatotoxicity result in the series with Hepatotoxicity [1] is on record as “no drug-induced liver injury reported”; in the series with Hepatotoxicity [2], “no drug-induced liver injury reported”; in the series on Hepatotoxicity [3], “drug-induced liver injury reported”.
Take `COC(=O)C(c1ccccc1)C1CCCCN1` (stereo not drawn) [METHYLPHENIDATE]: the Hepatotoxicity entry is reported as “no drug-induced liver injury reported” in the series on Hepatotoxicity [1], “drug-induced liver injury reported” in the series with Hepatotoxicity [2] and “drug-induced liver injury reported” in the series on Hepatotoxicity [3].
